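Cells were grown in 96-well plates and exposed to each compound for 48 hours at five concentrations; endpoints were interpolated linearly between bracketing concentrations, or set to the highest concentration if not reached. Here, GI50 denotes the concentration required for 50% inhibition of growth.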 Activity calls are given as the source filed them. Cut-off read from the data, not from the text of the source: active = GI50 up to about 1.1 µM and inactive = higher.
Assays:
Assay in all cases: NCI-60 cell line screen, 48 h
CAKI-1 = test system: CAKI-1
CCRF-CEM = test system: CCRF-CEM
COLO 205 = test system: COLO 205
HCC 2998 = test system: HCC 2998
HOP-62 = test system: HOP-62
HT-29 = test system: HT-29
IGROV-1 = test system: IGROV-1
KM12 = test system: KM12
NCI-H226 = test system: NCI-H226
NCI/ADR-RES = test system: NCI/ADR-RES
OVCAR-4 = test system: OVCAR-4
OVCAR-8 = test system: OVCAR-8
RPMI-8226 = test system: RPMI-8226
SF-295 = test system: SF-295
SF-539 = test system: SF-539
SK-MEL-28 = test system: SK-MEL-28
SK-MEL-2 = test system: SK-MEL-2
SK-OV-3 = test system: SK-OV-3
U-251 = test system: U-251
UO-31 = test system: UO-31

Measured: GI50

CCCCCCCCCCCCCCCCNCC(O)CN (stereo unspecified)
inactive: CAKI-1 12.2 µM | CCRF-CEM 1.96 µM | COLO 205 1.87 µM | HCC 2998 2.39 µM | HOP-62 16.7 µM | HT-29 1.99 µM | IGROV-1 5.19 µM | KM12 1.75 µM | NCI-H226 8.89 µM | NCI/ADR-RES 2.22 µM | OVCAR-4 3.48 µM | OVCAR-8 3.53 µM | RPMI-8226 2 µM | SF-295 2.64 µM | SF-539 2.34 µM | SK-MEL-28 13.1 µM | SK-MEL-2 18.6 µM | SK-OV-3 18.4 µM | U-251 2.51 µM | UO-31 7.73 µM

COC(=O)C1C(O)C(C)C(O)OC1C(C)C(O)C(C)/C=C\C=C(/C)C(=O)Nc1c(C)c(OC(C)=O)c2c(c1O)C(=O)C(C)=C1OCOC(/C(C)=C/C(C)=O)=C12 (stereo unspecified)
inactive: CAKI-1 17.6 µM | CCRF-CEM 5.96 µM | COLO 205 8.99 µM | HCC 2998 13.9 µM | HOP-62 11.6 µM | HT-29 14.5 µM | IGROV-1 12.6 µM | KM12 14 µM | NCI-H226 12.4 µM | NCI/ADR-RES 15.1 µM | OVCAR-4 12.1 µM | OVCAR-8 13.7 µM | RPMI-8226 9.48 µM | SF-295 14.9 µM | SF-539 13.2 µM | SK-MEL-28 2.99 µM | SK-MEL-2 12.6 µM | SK-OV-3 20 µM | U-251 14.4 µM | UO-31 16.4 µM

O=S(=O)(O)c1ccc(/N=N\c2ccc(/N=N\c3ccc(/C=C/c4ccc(/N=[N+](/[O-])c5ccc(/C=C/c6ccc(/N=N/c7ccc(/N=N\c8ccc(S(=O)(=O)O)cc8)cc7)cc6S(=O)(=O)O)c(S(=O)(=O)O)c5)cc4S(=O)(=O)O)c(S(=O)(=O)O)c3)cc2)cc1
inactive: CCRF-CEM > 100 µM | COLO 205 > 100 µM | HCC 2998 > 100 µM | HOP-62 > 100 µM | HT-29 > 100 µM | IGROV-1 > 100 µM | KM12 > 100 µM | NCI-H226 > 67.8 µM | NCI/ADR-RES > 100 µM | OVCAR-4 > 87.9 µM | OVCAR-8 > 100 µM | RPMI-8226 > 100 µM | SF-295 > 100 µM | SF-539 > 100 µM | SK-MEL-28 > 100 µM | SK-MEL-2 > 100 µM | SK-OV-3 > 100 µM | U-251 > 100 µM | UO-31 > 100 µM

Cc1ccc(C2=C(C#N)C(N)OC3=C2COc2ccccc23)cc1 (stereo unspecified)
inactive: CCRF-CEM 22.9 µM | COLO 205 > 100 µM | HCC 2998 41.6 µM | HOP-62 15.6 µM | HT-29 4.85 µM | IGROV-1 57.8 µM | KM12 > 100 µM | NCI-H226 > 100 µM | NCI/ADR-RES 30.3 µM | OVCAR-4 13.5 µM | RPMI-8226 > 100 µM | SF-539 39.6 µM | SK-MEL-28 31.6 µM | SK-MEL-2 26.6 µM | SK-OV-3 25.9 µM | U-251 19.5 µM | UO-31 14.3 µM

O=C(NC(Cc1ccc(I)cc1)C(=O)O)c1ccc(Cl)cc1 (stereo unspecified)
inactive: CAKI-1 > 100 µM | CCRF-CEM > 81.5 µM | COLO 205 > 100 µM | HCC 2998 > 38.8 µM | HOP-62 > 100 µM | HT-29 > 100 µM | IGROV-1 > 100 µM | KM12 > 100 µM | NCI-H226 > 100 µM | NCI/ADR-RES > 100 µM | OVCAR-4 > 66.8 µM | OVCAR-8 > 100 µM | RPMI-8226 59.3 µM | SF-295 > 100 µM | SF-539 > 77.1 µM | SK-MEL-28 > 100 µM | SK-MEL-2 > 100 µM | SK-OV-3 > 100 µM | U-251 > 100 µM | UO-31 > 100 µM
